Reference: ChEMBL document CHEMBL5126529, “Drug discovery of histone lysine demethylases (KDMs) inhibitors (progress from 2018 to present)” (Eur J Med Chem, 2022)

How the values were obtained:
[1] = target: Lysine-specific demethylase 4A (Homo sapiens) (UniProt O75164); experiment: Inhibition of recombinant KDM4A (unknown origin) assessed as residual activity using H3K9me3 peptide as substrate incubated for 60 mins by fluorescence based assay relative to control
[2] = target: T1, Amine oxidase [flavin-containing] A (Homo sapiens, UniProt P21397); experiment: Binding affinity to human MAO-A assessed as inhibition constant using tyramine as substrate incubated for 30 mins by enzymatic assay
T1 sequence (P21397 whole entry): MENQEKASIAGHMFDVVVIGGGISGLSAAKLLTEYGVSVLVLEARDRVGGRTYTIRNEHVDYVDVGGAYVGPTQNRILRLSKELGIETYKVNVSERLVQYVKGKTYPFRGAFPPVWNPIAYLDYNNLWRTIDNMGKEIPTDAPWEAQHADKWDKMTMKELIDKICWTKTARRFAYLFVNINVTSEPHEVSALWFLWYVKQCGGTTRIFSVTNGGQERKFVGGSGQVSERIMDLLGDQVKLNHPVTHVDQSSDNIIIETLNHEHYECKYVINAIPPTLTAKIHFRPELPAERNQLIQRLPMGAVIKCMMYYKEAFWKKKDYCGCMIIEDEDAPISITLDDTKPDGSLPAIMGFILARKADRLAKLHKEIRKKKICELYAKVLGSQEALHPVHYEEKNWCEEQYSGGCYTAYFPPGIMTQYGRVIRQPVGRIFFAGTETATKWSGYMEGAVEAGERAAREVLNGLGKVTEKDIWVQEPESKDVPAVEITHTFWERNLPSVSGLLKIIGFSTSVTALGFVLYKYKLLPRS

[3] = target: T2, Amine oxidase [flavin-containing] B (Homo sapiens, UniProt P27338); experiment: Binding affinity to human MAO-B assessed as inhibition constant using tyramine as substrate incubated for 30 mins by enzymatic assay
T2 sequence (P27338 whole entry): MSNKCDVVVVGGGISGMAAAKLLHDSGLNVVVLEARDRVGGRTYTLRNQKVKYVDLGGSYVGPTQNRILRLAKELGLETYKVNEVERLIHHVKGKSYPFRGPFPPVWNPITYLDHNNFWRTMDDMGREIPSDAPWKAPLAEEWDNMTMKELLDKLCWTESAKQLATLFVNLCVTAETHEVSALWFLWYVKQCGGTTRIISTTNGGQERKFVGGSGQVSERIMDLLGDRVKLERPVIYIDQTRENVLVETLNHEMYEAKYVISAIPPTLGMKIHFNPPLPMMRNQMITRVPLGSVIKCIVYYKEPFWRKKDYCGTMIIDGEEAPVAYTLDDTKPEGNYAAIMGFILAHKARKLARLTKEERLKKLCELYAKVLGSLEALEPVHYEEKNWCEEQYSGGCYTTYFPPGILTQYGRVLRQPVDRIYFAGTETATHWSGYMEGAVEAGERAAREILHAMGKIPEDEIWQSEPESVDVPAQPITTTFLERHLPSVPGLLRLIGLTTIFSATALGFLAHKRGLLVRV

[4] = target: T3, Lysine-specific histone demethylase 1A (Homo sapiens, UniProt O60341); experiment: Binding affinity to human KDM1A (172 to 833 residues) assessed as inhibition constant using Lys4-dimethylated H3 peptide as substrate incubated for 30 mins by enzymatic assay
[5] = target: Lysine-specific histone demethylase 2 (Homo sapiens, UniProt Q8NB78); experiment: Binding affinity to KDM1B (unknown origin) assessed as inhibition constant using Lys4-dimethylated H3 peptide as substrate incubated for 30 mins by enzymatic assay
[6] = target: T3, Lysine-specific histone demethylase 1A
[7] = target: T3, Lysine-specific histone demethylase 1A; experiment: Inhibition of KDM1A (unknown origin) by fluorescence based assay
MAO-B [8] = target: T4, MAO-B (Homo sapiens, UniProt P27338); experiment: Inhibition of recombinant MAO-B (unknown origin) at 10 uM by luminometry relative to control
T4 sequence (P27338 whole entry): T2 sequence (P27338 whole entry)

MAO-A [9] = target: T5, MAO-A (Homo sapiens, UniProt P21397); experiment: Inhibition of recombinant MAO-A (unknown origin) at 10 uM by luminometry relative to control
T5 sequence (P21397 whole entry): T1 sequence (P21397 whole entry)

[10] = target: Lysine-specific demethylase 6B (Homo sapiens, UniProt O15054); experiment: Binding affinity to KDM6B (unknown origin) assessed as inhibition constant
[11] = target: T3, Lysine-specific histone demethylase 1A; remark: listed apart in the source
[12] = target: T3, Lysine-specific histone demethylase 1A; experiment: Inhibition of recombinant human KMD1A (172 to 852 residues) using Bio-H3K4me2 peptide as substrate incubated for 1 hr by Lance ultra TR-FRET assay
[13] = target: T1, Amine oxidase [flavin-containing] A; experiment: Inhibition of MAO-A (unknown origin) by luminescence based assay
[14] = target: T2, Amine oxidase [flavin-containing] B; experiment: Inhibition of MAO-B (unknown origin) by luminescence based assay
MAO-A [15] = target: T5, MAO-A; experiment: Inhibition of recombinant MAO-A (unknown origin) using luciferin substrate at 10 uM preincubated for 15 mins followed by substrate addition measured after 1 hr by luciferase based assay relative to control; details: probe luciferin substrate, time 75 min
MAO-B [16] = target: T4, MAO-B; experiment: Inhibition of recombinant MAO-B (unknown origin) using luciferin substrate at 10 uM preincubated for 15 mins followed by substrate addition measured after 1 hr by luciferase based assay relative to control; details: probe luciferin substrate, time 75 min
MAO-B [17] = target: T4, MAO-B; experiment: Inhibition of MAO-B (unknown origin) at 100 uM relative to control
MAO-A [18] = target: T5, MAO-A; experiment: Inhibition of MAO-A (unknown origin) at 100 uM relative to control
[19] = target: T6, Lysine-specific demethylase 4A (Homo sapiens, UniProt O75164); experiment: Inhibition of recombinant human KDM4A incubated for 30 mins by fluorescence based assay
T6 sequence (O75164 whole entry): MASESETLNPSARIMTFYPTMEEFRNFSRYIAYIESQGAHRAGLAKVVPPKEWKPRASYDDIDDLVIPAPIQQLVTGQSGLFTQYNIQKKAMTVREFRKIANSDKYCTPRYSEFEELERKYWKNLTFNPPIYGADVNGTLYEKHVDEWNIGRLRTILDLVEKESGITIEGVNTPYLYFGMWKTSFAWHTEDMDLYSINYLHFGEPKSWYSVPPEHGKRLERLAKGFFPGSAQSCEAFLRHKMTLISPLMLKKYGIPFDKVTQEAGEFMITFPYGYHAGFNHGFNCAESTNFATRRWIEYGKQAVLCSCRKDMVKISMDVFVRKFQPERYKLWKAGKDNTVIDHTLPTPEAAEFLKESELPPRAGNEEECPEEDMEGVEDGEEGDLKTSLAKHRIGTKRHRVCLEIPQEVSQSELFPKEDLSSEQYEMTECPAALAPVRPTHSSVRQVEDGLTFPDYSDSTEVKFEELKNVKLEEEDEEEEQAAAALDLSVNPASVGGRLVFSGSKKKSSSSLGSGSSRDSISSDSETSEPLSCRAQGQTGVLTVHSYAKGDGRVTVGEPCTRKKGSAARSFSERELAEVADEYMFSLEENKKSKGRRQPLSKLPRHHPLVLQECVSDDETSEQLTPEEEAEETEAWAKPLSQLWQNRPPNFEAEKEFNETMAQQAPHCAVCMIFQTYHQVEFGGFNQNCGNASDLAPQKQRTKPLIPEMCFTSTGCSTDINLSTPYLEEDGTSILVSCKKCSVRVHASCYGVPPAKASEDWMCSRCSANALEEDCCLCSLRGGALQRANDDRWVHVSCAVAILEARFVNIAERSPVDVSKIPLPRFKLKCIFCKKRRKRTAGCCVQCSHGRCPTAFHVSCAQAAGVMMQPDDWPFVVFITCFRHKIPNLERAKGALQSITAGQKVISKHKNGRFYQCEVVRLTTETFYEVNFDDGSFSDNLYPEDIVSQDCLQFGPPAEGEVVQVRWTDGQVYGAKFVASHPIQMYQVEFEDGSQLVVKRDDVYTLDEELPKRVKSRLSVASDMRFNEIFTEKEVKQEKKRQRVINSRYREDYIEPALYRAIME

LC4-1 = experiment: cells; details: Homo sapiens
[20] = target: T1, Amine oxidase [flavin-containing] A; experiment: Inhibition of MAO-A (unknown origin) by luminometry
KE-37 = experiment: cells; details: Homo sapiens
P30-OHK = experiment: cells; details: Homo sapiens
MOLT-4 = experiment: cells; details: Homo sapiens
SUP-B15 = experiment: cells; details: Homo sapiens
HAL-01 = experiment: cells; details: Homo sapiens

Sequence of Lysine-specific demethylase 6B (O15054 whole entry): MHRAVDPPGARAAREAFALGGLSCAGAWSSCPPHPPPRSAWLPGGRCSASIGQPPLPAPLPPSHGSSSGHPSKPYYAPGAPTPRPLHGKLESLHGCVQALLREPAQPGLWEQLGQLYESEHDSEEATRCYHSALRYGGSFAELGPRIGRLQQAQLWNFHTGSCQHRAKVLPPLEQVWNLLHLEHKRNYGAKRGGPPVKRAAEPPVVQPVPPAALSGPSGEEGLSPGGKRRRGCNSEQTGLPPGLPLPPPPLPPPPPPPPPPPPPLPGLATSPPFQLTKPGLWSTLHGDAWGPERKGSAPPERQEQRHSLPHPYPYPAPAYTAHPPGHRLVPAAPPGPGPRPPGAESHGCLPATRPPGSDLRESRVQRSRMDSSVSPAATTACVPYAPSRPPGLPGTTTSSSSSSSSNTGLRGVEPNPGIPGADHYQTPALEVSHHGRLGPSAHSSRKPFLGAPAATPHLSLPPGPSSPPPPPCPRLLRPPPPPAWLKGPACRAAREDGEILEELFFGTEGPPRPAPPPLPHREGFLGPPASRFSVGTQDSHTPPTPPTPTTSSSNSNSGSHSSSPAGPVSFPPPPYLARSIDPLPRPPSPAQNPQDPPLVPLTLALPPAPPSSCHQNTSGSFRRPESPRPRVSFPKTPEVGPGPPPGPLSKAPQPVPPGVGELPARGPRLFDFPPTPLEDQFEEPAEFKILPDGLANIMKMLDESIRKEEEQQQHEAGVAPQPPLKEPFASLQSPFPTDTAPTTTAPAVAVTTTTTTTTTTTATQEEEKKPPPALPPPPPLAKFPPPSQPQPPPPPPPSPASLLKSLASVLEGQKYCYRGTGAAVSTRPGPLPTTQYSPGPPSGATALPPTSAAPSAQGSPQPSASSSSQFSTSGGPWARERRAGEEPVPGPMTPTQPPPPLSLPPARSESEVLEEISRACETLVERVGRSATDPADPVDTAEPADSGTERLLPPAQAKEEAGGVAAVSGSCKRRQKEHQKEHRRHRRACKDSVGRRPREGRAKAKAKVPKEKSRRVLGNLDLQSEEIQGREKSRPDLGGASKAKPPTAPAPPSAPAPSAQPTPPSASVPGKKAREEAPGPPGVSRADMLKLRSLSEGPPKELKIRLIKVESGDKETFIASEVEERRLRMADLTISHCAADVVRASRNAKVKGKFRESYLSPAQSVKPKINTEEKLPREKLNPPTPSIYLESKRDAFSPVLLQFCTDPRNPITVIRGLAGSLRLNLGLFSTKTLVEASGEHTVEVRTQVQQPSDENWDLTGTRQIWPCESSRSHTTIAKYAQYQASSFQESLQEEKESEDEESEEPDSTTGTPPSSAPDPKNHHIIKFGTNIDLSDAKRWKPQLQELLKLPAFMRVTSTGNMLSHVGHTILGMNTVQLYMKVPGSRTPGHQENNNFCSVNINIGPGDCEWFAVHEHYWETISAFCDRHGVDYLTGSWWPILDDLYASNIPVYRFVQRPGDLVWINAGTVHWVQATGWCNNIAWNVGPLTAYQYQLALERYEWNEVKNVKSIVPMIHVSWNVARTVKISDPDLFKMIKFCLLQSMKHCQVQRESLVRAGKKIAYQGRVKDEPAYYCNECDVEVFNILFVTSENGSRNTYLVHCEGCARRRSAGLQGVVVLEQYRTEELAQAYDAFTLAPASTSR
Sequence of Lysine-specific histone demethylase 2 (Q8NB78 whole entry): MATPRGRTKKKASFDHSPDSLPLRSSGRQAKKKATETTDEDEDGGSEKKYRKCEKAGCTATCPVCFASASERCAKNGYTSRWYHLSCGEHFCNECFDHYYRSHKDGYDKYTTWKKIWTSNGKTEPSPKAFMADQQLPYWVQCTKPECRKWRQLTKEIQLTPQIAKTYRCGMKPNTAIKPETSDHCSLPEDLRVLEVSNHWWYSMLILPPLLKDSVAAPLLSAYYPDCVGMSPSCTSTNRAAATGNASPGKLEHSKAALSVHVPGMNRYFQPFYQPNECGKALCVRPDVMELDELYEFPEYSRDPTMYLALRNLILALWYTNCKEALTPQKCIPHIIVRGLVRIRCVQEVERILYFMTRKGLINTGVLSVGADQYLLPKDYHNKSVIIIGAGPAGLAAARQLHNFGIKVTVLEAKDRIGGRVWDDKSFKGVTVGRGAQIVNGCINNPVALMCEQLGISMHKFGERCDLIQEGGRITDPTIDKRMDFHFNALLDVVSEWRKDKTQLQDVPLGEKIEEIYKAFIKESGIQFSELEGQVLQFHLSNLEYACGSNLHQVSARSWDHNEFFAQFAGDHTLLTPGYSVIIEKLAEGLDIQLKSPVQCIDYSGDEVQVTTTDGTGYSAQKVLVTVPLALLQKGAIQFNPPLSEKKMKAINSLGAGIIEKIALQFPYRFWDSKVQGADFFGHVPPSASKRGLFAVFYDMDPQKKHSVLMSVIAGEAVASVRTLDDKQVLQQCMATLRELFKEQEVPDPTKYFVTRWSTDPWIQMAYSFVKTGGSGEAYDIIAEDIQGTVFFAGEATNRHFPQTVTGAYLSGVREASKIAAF

Structure (SMILES): CC(C)(C)OC(=O)NCc1cc2ccccc2[te]1
- Activity [1]: 1.79%

Structure (SMILES): CN1CCN(C(=O)NC2CC2c2cc(F)cc(F)c2OCc2ccccc2)CC1 (configuration not stated)
- Ki [2]: > 250 µM
- Ki [3]: > 250 µM
- Ki [4]: 0.37 µM
- Ki [5]: > 250 µM

Structure (SMILES): CCCC(=O)NC(c1ccc(N(CC)CC)cc1)c1cc(Cl)c2cccnc2c1O (configuration not stated)
- IC50 [6]: 0.0039 µM

Structure (SMILES): C=C[C@]1(C)C[C@@H]2OC(=O)C(C)=C2C[C@H]1C(=C)C [ISOGERMAFURENOLIDE]
- IC50 [7]: 3.97 µM

Structure (SMILES): COc1cc2c(cc1OC)-c1cc3ccc4c(c3c[n+]1CC2)OCO4
- inhibition at 10 µM (MAO-B [8]): 40%
- inhibition at 10 µM (MAO-A [9]): 70%

Structure (SMILES): O=c1c(-c2ccc(O)cc2)coc2c([C@@H]3O[C@H](CO[C@@H]4OC[C@@H](O)[C@H](O)[C@H]4O)[C@@H](O)[C@H](O)[C@H]3O)c(O)ccc12
- Ki [10]: 7.46 µM

Structure (SMILES): CSCC[C@H](NC(=O)[C@@H](NC(=O)[C@H](CCCNC(=N)N)NC(=O)[C@H](C)N)[C@@H](C)O)C(=O)N[C@@H](CCC(N)=O)C(=O)N[C@H](C(=O)N[C@@H](C)C(=O)N[C@@H](CCCNC(=N)N)C(=O)N[C@@H](CCCCN)C(=O)N[C@@H](CO)C(=O)N[C@H](C(=O)O)[C@@H](C)O)[C@@H](C)O
- Kd [11]: 140 µM

Structure (SMILES): CC1(C)C(N[C@@H]2C[C@H]2c2ccccc2)CCC1N[C@@H]1C[C@H]1c1ccccc1 (some centres not stated)
- IC50 [12]: 4.8 µM
- IC50 [13]: 0.00729 µM
- IC50 [14]: 9.41 µM

Structure (SMILES): Oc1ccc(CC2NCCc3cc(O)c(O)cc32)cc1 (configuration not stated) [HIGENAMINE]
- inhibition at 1 h, 10 µM (MAO-A [15]): < 15%
- inhibition at 1 h, 10 µM (MAO-B [16]): < 15%

Structure (SMILES): NC1CC1c1ccc(NC(=O)c2ccc(-c3ccccc3)cc2)cc1 (configuration not stated)
- IC50 [6]: 0.051 µM
- inhibition at 100 µM (MAO-B [17]): 8%
- inhibition at 100 µM (MAO-A [18]): 2%

Structure (SMILES): O=C(O)c1cc(O)c(=O)c2c(O)c(O)cc(-c3ccccc3)c2c1
- IC50 [19]: 24.4 µM

Structure (SMILES): CC(C)(C)OC(=O)N1CCN(C(=S)SCC(=O)Nc2ccc(C(=O)/C=C/c3ccccc3F)cc2)CC1
- IC50 (LC4-1): 2.73 µM
- IC50 [20]: 20 µM
- IC50 (KE-37): 3.64 µM
- IC50 (P30-OHK): 3.85 µM
- IC50 (MOLT-4): 0.87 µM
- IC50 (SUP-B15): 1.87 µM
- IC50 (HAL-01): 1.1 µM
